test system: HCV; experiment: not given; conditions: extended dosing of the combination regimens; development suspended; cited from earlier work

Q: For `CNC(=O)c1c(-c2ccc(F)cc2)oc2cc(N(CCO)S(C)(=O)=O)c(C3CC3)cc12` [HCV-796], which hepatic toxicity is on record?
A: hepatic toxicity observed

same assay, conditions: patients; single agent: transient decrease then rebound; more robust drop with interferon and ribavirin; cited from earlier work

Q: With `CNC(=O)c1c(-c2ccc(F)cc2)oc2cc(N(CCO)S(C)(=O)=O)c(C3CC3)cc12` [HCV-796] as the compound, how does the “HCV RNA levels in patients” value read?
A: reduce HCV RNA levels in patients

test system: genotype 1b (Con-1) HCV replicon; experiment: HCV replicon luciferase assay; type: cell-based, HCV genotype 1b (Con-1) in human Huh-7 cells; conditions: Hepatitis C virus, 72 h; genotype 1b replicon, Huh-7, Renilla luciferase, 3 days incubation
Protocol: Cell Lines. The cell lines used to evaluate compounds consist of a human hepatocyte derived cell line (Huh-7) that constitutively expresses a genotype 1b (Con-1) HCV replicon or a genotype 1b (Con-1) HCV replicon with an asparagine replacing the cysteine at amino acid 316, or a genotype 2a (JFH-1) replicon, containing a Renilla luciferase reporter gene. These cells were maintained in Dulbecco's modified Eagle medium (DMEM) containing 10% FBS, 100 U/mL penicillin/streptomycin and 1.0 mg/mL G418.
HCV replicon luciferase assay.To evaluate compound efficacy, titrated compounds were transferred to sterile 384-well tissue culture treated plates, and the plates were seeded with HCV replicon cells (50 μL at a density of 2.4×10^3 cells/well) in DMEM containing 4% FBS (final DMSO concentration at 0.5%). After 3 days incubation at 37° C., cells were analyzed for Renilla Luciferase activity using the EnduRen substrate (Promega cat #E6485) according to the manufacturer's directions. Briefly, the EnduRen substrate was diluted in DMEM and then added to the plates to a final concentration of 7.5 μM. The plates were incubated for at least 1 hour at 37° C., then read on a Viewlux Imager (PerkinElmer) using a luminescence program. The 50% effective concentration (EC50) was calculated using the four-parameter logistic formula noted above.

Q: Which EC50 does the source give for `CNC(=O)c1c(-c2ccc(F)cc2)oc2ccc3c(c12)CC=CCO3` [Compound 1001] here?
A: 2.08 µM

Q: Which EC50 does the source give for `C=CC1Cc2c(ccc3oc(-c4ccc(F)cc4)c(C(=O)NC)c23)O1` (centres unmarked) [Compound 1002] here?
A: 0.672 µM

Q: Which EC50 does the source give for `CNC(=O)c1c(-c2ccc(F)cc2)oc2ccc3c(c12)Cc1ccccc1-c1ccccc1CO3` [Compound 1003] here?
A: 2.84 µM

Q: Which EC50 does the source give for `CNC(=O)c1c(-c2ccc(F)cc2)oc2ccc3c(c12)Cc1cccc2cccc(c12)CO3` [Compound 1004] here?
A: > 10 µM

Q: For `CNC(=O)c1c(-c2ccc(F)cc2)oc2ccc3c(c12)CCc1cccc(c1)CCO3` [Compound 1005], which EC50 is on record?
A: > 10 µM

Q: With `CNC(=O)c1c(-c2ccc(F)cc2)oc2ccc3c(c12)CCOCCOCCO3` [Compound 1006] as the compound, how does the EC50 read?
A: > 10 µM

Q: Which EC50 does the source give for `CNC(=O)c1c(-c2ccc(F)cc2)oc2ccc3c(c12)CCCCCCO3` [Compound 1007] here?
A: 1.29 µM

Q: For `CNC(=O)c1c(-c2ccc(F)cc2)oc2ccc3c(c12)CCCCCCCO3` [Compound 1008], which EC50 is on record?
A: 1.82 µM

Q: With `CNC(=O)c1c(-c2ccc(F)cc2)oc2ccc3c(c12)CCCCCCCCO3` [Compound 1009] as the compound, how does the EC50 read?
A: 2.08 µM

Q: With `CNC(=O)c1c(-c2ccc(F)cc2)oc2ccc3c(c12)CCCCCCCCCO3` [Compound 1010] as the compound, how does the EC50 read?
A: 1.63 µM

Q: With `CNC(=O)c1c(-c2ccc(F)cc2)oc2ccc3c(c12)CCCCCCCCCCO3` [Compound 1011] as the compound, how does the EC50 read?
A: 1.08 µM

Q: For `CNC(=O)c1c(-c2ccc(F)cc2)oc2ccc3c(c12)CCCCCCCCCCCO3` [Compound 1012], which EC50 is on record?
A: 0.53 µM

Q: For `CNC(=O)c1c(-c2ccc(F)cc2)oc2ccc3c(c12)CCCCCCCCCCCCO3` [Compound 1013], which EC50 is on record?
A: 1.51 µM

Q: With `CNC(=O)c1c(-c2ccc(F)cc2)oc2ccc3c(c12)CCN(S(=O)(=O)c1ccc(C)cc1)CCO3` [Compound 1014] as the compound, how does the EC50 read?
A: > 10 µM

Q: Which EC50 does the source give for `CNC(=O)c1c(-c2ccc(F)cc2)oc2ccc3c(c12)Cc1cccc(n1)COc1ccc2oc(-c4ccc(F)cc4)c(C(=O)NC)c2c1Cc1cccc(n1)CO3` [Compound 2001] here?
A: 6.67 µM

Q: Which EC50 does the source give for `C=C1COc2ccc3oc(-c4ccc(F)cc4)c(C(=O)NC)c3c2CC(=C)COc2ccc3oc(-c4ccc(F)cc4)c(C(=O)NC)c3c2C1` [Compound 2002] here?
A: 3.65 µM

Q: With `CNC(=O)c1c(-c2ccc(F)cc2)oc2ccc3c(c12)Cc1cccc(c1)COc1ccc2oc(-c4ccc(F)cc4)c(C(=O)NC)c2c1Cc1cccc(c1)CO3` [Compound 2004] as the compound, how does the EC50 read?
A: > 10 µM

Q: Which EC50 does the source give for `CNC(=O)c1c(-c2ccc(F)cc2)oc2ccc3c(c12)CC1(CC1)COc1ccc2oc(-c4ccc(F)cc4)c(C(=O)NC)c2c1CC1(CC1)CO3` [Compound 2005] here?
A: 0.931 µM
